Our source for the IC50 and Ki values is ChEMBL document CHEMBL1909046, “DrugMatrix in vitro pharmacology data”.

Each structure is given as a SMILES string.

Experiment [1] has as its target T1, Alpha-1D adrenergic receptor (Homo sapiens, UniProt P25100). Note: in other assays of this panel Not Active means under 50% inhibition at 10 µM.
T1 sequence (P25100 whole entry): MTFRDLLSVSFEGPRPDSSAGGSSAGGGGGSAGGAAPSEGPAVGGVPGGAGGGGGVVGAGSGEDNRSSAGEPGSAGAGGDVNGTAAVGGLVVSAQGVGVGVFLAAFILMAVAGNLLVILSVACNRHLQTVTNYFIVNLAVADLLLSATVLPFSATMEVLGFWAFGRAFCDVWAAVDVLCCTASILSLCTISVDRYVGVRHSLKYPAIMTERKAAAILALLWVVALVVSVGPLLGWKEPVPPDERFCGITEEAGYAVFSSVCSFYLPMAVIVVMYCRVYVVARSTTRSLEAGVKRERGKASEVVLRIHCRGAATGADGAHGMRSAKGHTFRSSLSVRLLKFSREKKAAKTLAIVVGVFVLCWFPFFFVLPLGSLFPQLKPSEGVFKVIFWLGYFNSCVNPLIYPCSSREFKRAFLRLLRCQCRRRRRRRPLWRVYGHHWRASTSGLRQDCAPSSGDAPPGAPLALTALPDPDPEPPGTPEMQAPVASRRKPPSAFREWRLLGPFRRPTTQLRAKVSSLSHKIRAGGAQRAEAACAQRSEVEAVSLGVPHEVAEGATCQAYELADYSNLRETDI
The class given is cell membranes, HEK293, Membrane.

In experiment [2] the target is T2, Vasoactive intestinal polypeptide receptor 1 (Homo sapiens, UniProt P32241). Note: in other assays of this panel Not Active means under 50% inhibition at 10 µM.
T2 sequence (P32241 whole entry): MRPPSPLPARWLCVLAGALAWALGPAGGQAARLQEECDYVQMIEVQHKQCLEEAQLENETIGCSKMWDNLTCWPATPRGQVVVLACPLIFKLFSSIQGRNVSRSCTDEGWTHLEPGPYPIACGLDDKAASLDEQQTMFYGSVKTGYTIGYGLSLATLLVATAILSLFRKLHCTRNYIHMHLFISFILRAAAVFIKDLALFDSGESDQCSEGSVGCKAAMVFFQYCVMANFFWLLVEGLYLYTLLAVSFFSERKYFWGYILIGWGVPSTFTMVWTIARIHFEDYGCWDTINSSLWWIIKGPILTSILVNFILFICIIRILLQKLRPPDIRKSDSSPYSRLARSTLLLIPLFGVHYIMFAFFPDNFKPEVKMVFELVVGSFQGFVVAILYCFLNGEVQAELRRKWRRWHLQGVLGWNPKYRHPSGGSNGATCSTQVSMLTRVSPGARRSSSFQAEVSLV
It is filed as cell membranes, Membrane. Conditions: ht-29.

Experiment [3] has as its target C-C chemokine receptor type 5 (Homo sapiens, UniProt P51681). It is filed as cell membranes, Membrane. Conditions: hek293. Note: in other assays of this panel Not Active means under 50% inhibition at 10 µM.
Experiment [4] addresses T3, C-X-C chemokine receptor type 2 (Homo sapiens, UniProt P25025).
T3 sequence (P25025 whole entry): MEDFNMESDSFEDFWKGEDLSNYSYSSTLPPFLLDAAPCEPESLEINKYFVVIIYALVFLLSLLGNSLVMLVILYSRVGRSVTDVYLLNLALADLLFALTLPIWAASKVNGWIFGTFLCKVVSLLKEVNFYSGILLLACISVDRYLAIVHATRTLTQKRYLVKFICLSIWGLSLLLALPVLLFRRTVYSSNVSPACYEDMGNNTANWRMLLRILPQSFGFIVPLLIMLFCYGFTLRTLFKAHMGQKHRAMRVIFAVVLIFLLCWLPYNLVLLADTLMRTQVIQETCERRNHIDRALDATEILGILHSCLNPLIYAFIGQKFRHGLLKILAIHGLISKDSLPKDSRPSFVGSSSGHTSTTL
It is filed as cell membranes, Membrane. Conditions: cho-k1.

The target of experiment [5] is T4, Nitric oxide synthase, inducible (Mus musculus, UniProt P29477).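 Note: inhibition of iNOS enzyme activity measured with L-arginine as substrate; in other assays of this panel Not Active means under 50% inhibition at 10 µM.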
T4 sequence (P29477 whole entry): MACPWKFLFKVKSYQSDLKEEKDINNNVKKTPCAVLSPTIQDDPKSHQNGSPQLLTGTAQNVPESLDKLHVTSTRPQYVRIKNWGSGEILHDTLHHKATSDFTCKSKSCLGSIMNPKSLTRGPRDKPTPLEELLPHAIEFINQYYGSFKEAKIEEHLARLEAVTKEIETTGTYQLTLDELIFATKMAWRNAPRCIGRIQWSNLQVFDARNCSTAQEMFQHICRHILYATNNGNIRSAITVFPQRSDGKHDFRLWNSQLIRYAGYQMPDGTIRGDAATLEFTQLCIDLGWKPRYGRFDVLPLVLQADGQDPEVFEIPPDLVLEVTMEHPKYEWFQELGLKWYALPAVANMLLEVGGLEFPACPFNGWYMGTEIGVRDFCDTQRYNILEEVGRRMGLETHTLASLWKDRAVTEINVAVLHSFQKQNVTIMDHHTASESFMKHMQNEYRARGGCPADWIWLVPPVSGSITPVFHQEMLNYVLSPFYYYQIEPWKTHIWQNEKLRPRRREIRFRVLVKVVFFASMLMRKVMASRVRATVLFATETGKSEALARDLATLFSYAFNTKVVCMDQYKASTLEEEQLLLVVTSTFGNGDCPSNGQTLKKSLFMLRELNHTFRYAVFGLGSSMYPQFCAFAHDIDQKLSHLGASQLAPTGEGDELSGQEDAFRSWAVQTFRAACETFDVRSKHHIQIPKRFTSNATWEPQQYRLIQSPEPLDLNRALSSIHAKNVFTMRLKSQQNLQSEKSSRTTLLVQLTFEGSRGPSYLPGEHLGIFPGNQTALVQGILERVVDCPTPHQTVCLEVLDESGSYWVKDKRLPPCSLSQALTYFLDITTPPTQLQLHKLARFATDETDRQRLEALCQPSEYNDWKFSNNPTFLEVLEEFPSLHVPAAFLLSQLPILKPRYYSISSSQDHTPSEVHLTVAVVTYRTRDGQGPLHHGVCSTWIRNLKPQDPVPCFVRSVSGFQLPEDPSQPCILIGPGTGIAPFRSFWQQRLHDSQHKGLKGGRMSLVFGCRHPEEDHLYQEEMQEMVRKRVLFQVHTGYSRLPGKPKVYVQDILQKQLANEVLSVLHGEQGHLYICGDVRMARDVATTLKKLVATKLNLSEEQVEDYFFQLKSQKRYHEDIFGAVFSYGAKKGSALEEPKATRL
Also on record: species or system Escherichia coli.

Experiment [6] addresses Kappa-type opioid receptor (Homo sapiens, UniProt P41145). The experiment is described as follows: DRUGMATRIX: Opiate kappa (OP2, KOP) radioligand binding (ligand: [3H] Diprenorphine). The conditions noted are these: Not Active = under 50% inhibition at 10 µM. It is filed as cell membranes, HEK293, Membrane.
Experiment [7] can be described thus: DRUGMATRIX: Platelet-Derived Growth Factor (PDGF) radioligand binding (ligand: [125I] PDGF). It is filed as cell-based. Conditions: nih3t3; Not Active = under 50% inhibition at 10 µM.

Sequence of C-C chemokine receptor type 5 (P51681 whole entry): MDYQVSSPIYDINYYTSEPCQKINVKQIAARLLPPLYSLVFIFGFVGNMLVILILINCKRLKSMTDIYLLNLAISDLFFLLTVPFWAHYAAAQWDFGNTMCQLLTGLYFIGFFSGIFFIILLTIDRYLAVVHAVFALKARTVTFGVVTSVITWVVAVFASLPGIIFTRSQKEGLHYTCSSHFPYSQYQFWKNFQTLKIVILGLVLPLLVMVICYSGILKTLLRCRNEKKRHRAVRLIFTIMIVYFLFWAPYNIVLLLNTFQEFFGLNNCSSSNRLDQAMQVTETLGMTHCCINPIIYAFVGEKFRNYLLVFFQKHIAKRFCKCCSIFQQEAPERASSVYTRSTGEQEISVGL
Sequence of Kappa-type opioid receptor (P41145 whole entry): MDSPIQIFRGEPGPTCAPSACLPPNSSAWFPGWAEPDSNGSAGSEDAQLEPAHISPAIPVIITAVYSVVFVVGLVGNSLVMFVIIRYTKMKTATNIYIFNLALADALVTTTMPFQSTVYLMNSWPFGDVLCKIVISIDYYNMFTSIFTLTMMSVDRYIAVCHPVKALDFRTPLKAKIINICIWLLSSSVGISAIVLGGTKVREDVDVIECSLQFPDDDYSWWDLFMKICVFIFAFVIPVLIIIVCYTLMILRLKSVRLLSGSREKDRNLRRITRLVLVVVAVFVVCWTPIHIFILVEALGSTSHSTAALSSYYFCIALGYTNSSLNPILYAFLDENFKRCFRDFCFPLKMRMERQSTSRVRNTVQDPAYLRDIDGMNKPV

Take `O=P1(N(CCCl)CCCl)NCCCO1` (configuration not stated) [CYCLOPHOSPHAMIDE ANHYDROUS]: the IC50 result in experiment [1] (hek293), in experiment [2], in experiment [3], in experiment [4], in experiment [5] and in experiment [6] (hek293) was “Not Active” in each case. Further, in experiment [7], the IC50 result is “Not Active”. Further, in experiment [7], the inhibition constant Ki result is “Not Active”.

In the case of `CC(=O)O[C@]1(C(C)=O)CC[C@H]2[C@@H]3C=C(Cl)C4=CC(=O)[C@@H]5C[C@@H]5[C@]4(C)[C@H]3CC[C@@]21C` [CYPROTERONE ACETATE], the Ki result in experiment [1] (hek293) and in experiment [7] was “Not Active” in each case. For the same compound, the IC50 entry in experiment [2], in experiment [3], in experiment [4], in experiment [5], in experiment [6] (hek293) and in experiment [7] was “Not Active” each time.

`C#C[C@]1(O)CC[C@H]2[C@@H]3CCC4=Cc5oncc5C[C@]4(C)[C@H]3CC[C@@]21C` [DANAZOL]: the IC50 result is “Not Active” in experiment [1] (hek293); “Not Active” in experiment [2]; “Not Active” in experiment [3]; “Not Active” in experiment [4]; “Not Active” in experiment [5]; 15.5 µM in experiment [6] (read-out: IC50). Moreover, the IC50 entry in experiment [7] is “Not Active”. Also, the values for the Ki in experiment [6] and in experiment [7] were 6.21 µM and “Not Active”, respectively.

Turning to `CCN[C@@H](C)Cc1cccc(C(F)(F)F)c1` [DEXFENFLURAMINE], the IC50 entry in experiment [1] (hek293), in experiment [2], in experiment [3], in experiment [4], in experiment [5] and in experiment [6] (hek293) was “Not Active” in each case. In addition, the IC50 entry in experiment [7] is “Not Active”. Moreover, the Ki result in experiment [7] is “Not Active”.

As for `C[C@H](C(=O)O)c1cccc(C(=O)c2ccccc2)c1` [DEXKETOPROFEN], the IC50 entry in experiment [1] (hek293), in experiment [2], in experiment [3], in experiment [4], in experiment [5] and in experiment [6] (hek293) was “Not Active” in each case. For the same compound, in experiment [7], the IC50 entry is “Not Active”. Further, the Ki result in experiment [7] is listed as “Not Active”.

In the case of `CN1C(=O)CN=C(c2ccccc2)c2cc(Cl)ccc21` [DIAZEPAM], the half-maximal inhibitory concentration (IC50) entry in experiment [1] (hek293), in experiment [2], in experiment [3], in experiment [4], in experiment [5] and in experiment [6] (hek293) was “Not Active” each time. Also, in experiment [7], the 50% inhibitory concentration (IC50) entry is on record as “Not Active”. In addition, the inhibition constant Ki entry in experiment [7] is recorded as “Not Active”.

In the case of `Cc1c(N(C)CS(=O)(=O)[O-])c(=O)n(-c2ccccc2)n1C.[Na+]` [DIPYRONE SODIUM], the IC50 result in experiment [1] (hek293), in experiment [2], in experiment [3], in experiment [4], in experiment [5] and in experiment [6] (hek293) was “Not Active” in each case. For the same compound, the IC50 entry in experiment [7] is on record as “Not Active”. For the same compound, in experiment [7], the inhibition constant (Ki) entry is listed as “Not Active”.

In the case of `CC(CCc1ccc(O)cc1)NCCc1ccc(O)c(O)c1` (configuration not stated) [DOBUTAMINE], the IC50 was 0.114 µM in experiment [1] (read-out: IC50); “Not Active” in experiment [2]; “Not Active” in experiment [3]; “Not Active” in experiment [4]; “Not Active” in experiment [5]; “Not Active” in experiment [6] (hek293). The IC50 result in experiment [7] is reported as “Not Active”. Moreover, the results for the Ki in experiment [1] (read-out: Ki) and in experiment [7] were 0.056 µM and “Not Active”, respectively.

On to `CCn1cc(C(=O)O)c(=O)c2cc(F)c(N3CCNCC3)nc21` [ENOXACIN], for which the IC50 entry in experiment [1] (hek293), in experiment [2], in experiment [3], in experiment [4], in experiment [5] and in experiment [6] (hek293) was “Not Active” in each case. Further, the concentration for half-maximal inhibition (IC50) result in experiment [7] is given as “Not Active”. Moreover, the Ki result in experiment [7] is “Not Active”.

Take `CCC(=O)O[C@H]1[C@H](O[C@@H]2[C@@H](C)[C@H](O[C@H]3C[C@@](C)(OC)[C@@H](O)[C@H](C)O3)[C@@H](C)C(=O)O[C@H](CC)[C@@](C)(O)[C@H](O)[C@@H](C)C(=O)[C@H](C)C[C@@]2(C)O)O[C@H](C)C[C@@H]1N(C)C` [ERYTHROMYCIN PROPIONATE]: the IC50 entry in experiment [1] (hek293), in experiment [2], in experiment [3], in experiment [4], in experiment [5] and in experiment [6] (hek293) was “Not Active” each time. Also, the IC50 entry in experiment [7] is given as “Not Active”. Further, the Ki result in experiment [7] is reported as “Not Active”.

Take `C=C(CC)C(=O)c1ccc(OCC(=O)O)c(Cl)c1Cl` [ETHACRYNIC ACID]: the IC50 entry in experiment [1] (hek293), in experiment [2], in experiment [3], in experiment [4], in experiment [5] and in experiment [6] (hek293) was “Not Active” throughout. The IC50 result in experiment [7] was “Not Active”. Besides, the Ki entry in experiment [7] is on record as “Not Active”.

Turning to `C#C[C@]1(O)CC[C@H]2[C@@H]3CCc4cc(O)ccc4[C@H]3CC[C@@]21C` [ETHINYL ESTRADIOL], the IC50 entry in experiment [1] (hek293) was “Not Active”; in experiment [2], “Not Active”; in experiment [3], “Not Active”; in experiment [4], “Not Active”; in experiment [5], “Not Active”; in experiment [6] (read-out: IC50) it was 25.9 µM. Also, in experiment [7], the IC50 result is reported as “Not Active”. Besides, the Ki was 10.4 µM in experiment [6] and “Not Active” in experiment [7].

In the case of `OCCO` [ETHYLENE GLYCOL], the half-inhibitory concentration (IC50) result in experiment [1] (hek293), in experiment [2], in experiment [3], in experiment [4], in experiment [5] and in experiment [6] (hek293) was “Not Active” each time. For the same compound, the half-inhibitory concentration (IC50) entry in experiment [7] is reported as “Not Active”. For the same compound, the inhibition constant Ki result in experiment [7] is listed as “Not Active”.

The term IC50 denotes the concentration that gives 50% inhibition. A word on the Ki: it is the dissociation constant of the complex between target and ligand, obtained from inhibition or displacement.
